Measured values published in patent US20090156632A1, “DOSAGE REGIMEN FOR PRASUGREL” (priority 2005, published 2009).

Columns and labels:
[1] = system: platelet aggregation induced by 20 μM ADP; test: Clinical Example 1: multiple-dose study, platelet aggregation induced by 20 μM ADP measured turbidometrically; format: in vivo, human; conditions: for IPA: 24 hours after 10th dose, mean ± SE, n = 6
Method: (§1) A Comparative Study of the Effects of Prasugrel and Clopidogrel on Platelet Function in Healthy Subjects • Background: Antiplatelet agents such as aspirin and clopidogrel are effective in the secondary prevention of atherothrombotic events. […] This study examined the tolerability, safety, and IPA profile of prasugrel compared with clopidogrel. • Method: A double-blind, placebo-controlled, multiple-dose study of healthy male volunteers randomized into 5 groups (n=6): prasugrel (5, 10 and 20 mg), clopidogrel (75 mg), and placebo. Study medications were taken once daily for 10 days.

[2] = system: ADP (5 μM and 20 μM)-induced platelet aggregation; test: Clinical Example 3: responders by ADP-induced platelet aggregation (turbidometric aggregometry) after loading dose; format: in vivo, human; conditions: for responders: healthy volunteers
Source text: Clopidogrel Responders and Nonresponders: A Comparison with Prasugrel a Novel Thienopyridine P2Y12 Receptor Antagonist • Background: Lower levels of inhibition of platelet aggregation (IPA) with clopidogrel have been associated with a higher risk of adverse events after percutaneous coronary intervention (PCI). Thresholds of IPA, objectively defined with Bayesian classification theory, were used to identify responders and non-responders to clopidogrel and prasugrel, a novel thienopyridine P2Y12 receptor antagonist. • Methods: An integrated database of ADP (5 μM and 20 μM)-induced platelet aggregation as measured by turbidometric aggregometry was analyzed from three single-center cross-over clinical pharmacology studies. Subjects (N=112, aged 18-65 years) were healthy volunteers with a baseline maximum platelet aggregation (MPA) of >70% to 20 μM ADP and were randomized to either a clopidogrel 300 mg loading dose (LD) or a prasugrel 60 mg LD. The change in MPA (ΔMPA) from baseline and IPA were evaluated at both 4-5 and 24 hours after the LD. A responder was defined as an individual achieving either a ΔMPA≧15% or an IPA≧20% in response to 20 μM ADP.

[3] = system: platelet aggregation to 20 μM ADP; test: Clinical Example 2: IPA to 20 μM ADP by turbidometric aggregometry and non-responder rates in aspirin-treated patients; format: in vivo, human; conditions: for pre-dose IPA at day 28 / IPA at 4 h after LD: 20 μM ADP
Method: This study analyzed IPA and non-responder rates with prasugrel (Pras), a novel P2Y12 antagonist, vs. clopidogrel (Clop) in aspirin-treated patients. • Methods: After 7-days on aspirin 325 mg, 101 subjects were randomized to 1 of 5 dosing regimens, a loading dose (LD) on day 1 and a daily maintenance dose (MD) on days 2-28: prasugrel—40 mg LD/5 mg MD, 40 mg LD/7.5 mg MD, 60 mg LD/10 mg MD, or 60 mg LD/15 mg MD or clopidogrel—300 mg LD/75 mg MD). IPA to 20 μM ADP was measured by turbidometric aggregometry.

[4] = Clinical Example 1: tolerability, safety and bleeding time; format: in vivo, human; conditions: healthy subjects; multiple oral dosing, 5 to 20 mg for 10 days
Method: as §1

platelet aggregation = test: Preclinical studies of prasugrel base versus clopidogrel; conditions: preclinical studies involving the base of prasugrel
[5] = 5 μM ADP, clopidogrel 300 mg LD, N = 112
[6] = 20 μM ADP, clopidogrel 300 mg LD, N = 112
[7] = 5 μM ADP, prasugrel 60 mg LD, N = 91
[8] = 20 μM ADP, prasugrel 60 mg LD, N = 91

COC(=O)[C@H](c1ccccc1Cl)N1CCc2sccc2C1 [clopidogrel, reference compound]
subjects demonstrating minimal IPA at Day 10 ([1]; clopidogrel 75 mg once daily for 10 days): 2 of 6
IPA ([1]; clopidogrel 75 mg once daily for 10 days, 20 μM ADP): 15.7%
IPA ([1]; clopidogrel 75 mg once daily for 10 days, 20 μM ADP, listed as Clopidogrel): 15.7 ± 6.8%
Number of Responders, IPA ≧ 25% [2, 5]: 87
Number of Responders, ΔMPA ≧ 20% [2, 5]: 82
Percentage of Responders, IPA ≧ 25% [2, 5]: 78%
Percentage of Responders, ΔMPA ≧ 20% [2, 5]: 73%
responders ([2]; 5 μM ADP, clopidogrel 300 mg LD): approximately 75%
Number of Responders, IPA ≧ 20% [2, 6]: 64
Number of Responders, ΔMPA ≧ 15% [2, 6]: 68
Percentage of Responders, IPA ≧ 20% [2, 6]: 57%
Percentage of Responders, ΔMPA ≧ 15% [2, 6]: 61%
responders ([2]; 20 μM ADP, clopidogrel 300 mg LD): 60%
pre-dose IPA at day 28 ([3]; clopidogrel 75 mg MD, aspirin-treated patients): 31.2%
non-responder rate (not achieving ≧20% IPA) ([3]; clopidogrel 75 mg MD, pre-dose during MD): 46%
non-responder rate (not achieving ≧20% IPA) ([3]; clopidogrel 300 mg LD, 4 h after LD): 52%
IPA at 4 h after LD ([3]; clopidogrel 300 mg LD, aspirin-treated patients): 30.0%

CC(=O)Oc1cc2c(s1)CCN(C(C(=O)C1CC1)c1ccccc1F)C2 (stereo not drawn) [prasugrel, 2-Acetoxy-5-(α-cyclopropylcarbonyl-2-fluorobenzyl)-4,5,6,7-tetrahydrothieno[3,2-c]pyridine]
tolerability [4]: well tolerated
IPA ([1]; prasugrel 5 mg once daily for 10 days, 20 μM ADP): 39.2 ± 4.4%
IPA ([1]; prasugrel 10 mg once daily for 10 days, 20 μM ADP): 58.2 ± 4.9%
IPA ([1]; prasugrel 20 mg once daily for 10 days, 20 μM ADP): 68.3 ± 5.4%
IPA, range over doses ([1]; prasugrel 5, 10 and 20 mg once daily for 10 days, 24 hours after the final dose, 20 μM ADP): 39.2%-68.3
Number of Responders, IPA ≧ 25% [2, 7]: 91
Number of Responders, ΔMPA ≧ 20% [2, 7]: 91
Percentage of Responders, IPA ≧ 25% [2, 7]: 100%
Percentage of Responders, ΔMPA ≧ 20% [2, 7]: 100%
responders ([2]; 5 μM ADP, prasugrel 60 mg LD): 100%
Number of Responders, IPA ≧ 20% [2, 8]: 91
Number of Responders, ΔMPA ≧ 15% [2, 8]: 91
Percentage of Responders, IPA ≧ 20% [2, 8]: 100%
Percentage of Responders, ΔMPA ≧ 15% [2, 8]: 100%
responders ([2]; 20 μM ADP, prasugrel 60 mg LD): 100%
potency relative to clopidogrel (platelet aggregation): at least 10 times
pre-dose IPA at day 28 ([3]; prasugrel 10 mg MD, aspirin-treated patients): 57.5%
pre-dose IPA at day 28 ([3]; prasugrel 15 mg MD, aspirin-treated patients): 65.8%
IPA at 4 h after LD ([3]; prasugrel 40 mg LD, aspirin-treated patients): 60.6%
IPA at 4 h after LD ([3]; prasugrel 60 mg LD, aspirin-treated patients): 68.4%
rate of non-responders compared to standard clopidogrel LD and MD ([3]; prasugrel LD of 40 or 60 mg and MD of 10 or 15 mg, aspirin-treated patients): lower rate of non-responders
